Experimental data reported in patent publication US12006350B2, “Triblock peptide amphiphiles, micelles and methods of use” (The Curators of the University of Missouri, priority 2017, dated 2024).
No end group written: not given here. *: point of attachment. Palmitoyl = CCCCCCCCCCCCCCCC(=O)*

What was measured:
macrophages (MØs) = test: TNF-α secretion from LPS-activated MØs incubated with VIP materials; assay type: cell-based
Method: (§1) The anti-inflammatory effect of VIPAMs were explored by incubating MOs and DCs with LPS and different VIP materials at low (i.e. 1 μM) or high (20 μM) concentrations (FIG. 41A, FIG. 41B, and FIG. 41C).

dendritic cells (DCs) [1] = test: TNF-α secretion from LPS-activated DCs incubated with VIP materials; assay type: cell-based; settings: low (1 μM) or high (20 μM) concentration
Method: as §1

dendritic cells (DCs) [2] = test: CD86 expression on DCs incubated with VIP materials; assay type: cell-based; settings: for CD86 expression on activated DCs: with LPS
Method: as §1

dendritic cells (DCs) [3] = test: CCL22 production from DCs treated with VIP formulations; assay type: cell-based; settings: 24 hours; for DC CCL22 production: immature and mature DCs; for CCL22 production from immature DCs: vs no stimulus
Method: Thus, CCL22 production from DCs treated with different VIP formulations was evaluated.

[4] = cited from earlier work
[5] = Zeta potential measurement of the zwitterion-like peptide region alone; assay type: physicochemical
From the text: The alternating charge groups of (KE)4 at neutral pH can create local dipole moments that allow for intermicellar complexation yielding the observed twining behavior. At low pH and high pH utilized, not all of the glutamic acids or lysines will be protonated or deprotonated, respectively, but the local change in (KE)4 block charge is significant enough to repulse one another yielding individual thread-like micelles.

[6] = Micelle morphology and diameter by negative stain TEM; assay type: physicochemical; settings: concentrations above CMC
Method: Micelle morphology was assessed by negative stain transmission electron microscopy (TEM). TEM grids (200 mesh) with standard thickness carbon support films were purchased from Electron Microscopy Sciences and glow discharged for 45 seconds (Pelco Easiglow) to impart a negative charge. Product solutions (5 μL) were added to freshly glow-discharged films and incubated for 5 minutes. Filter paper was used to wick away excess solution and 5 μL of nanotungsten (Nanoprobes, Inc.) was immediately added. After 5 minute of incubation, grids were blotted dried and stored for later use. Samples were imaged with a JEOL JEM-1400 TEM at 120 kV for shape assessment. Tilt series images were collected at 200 kV, spot size 4, gun lens of 5, and extraction voltage of 3950 sA at a nominal 23,000× magnification with an underfocus of 1 sm. Tilt increments were collected every 2 degrees with a tilt range of ±70°, starting at 0°, with the negative half of the tilt series collected using FEI Xplore3D. Frames were aligned using IMOD with the patch-tracking algorithm using the entire imaged area for frame alignment and reconstructed with the weighted back projection algorithm. Micellar diameters were measured using ImageJ software (NIH). Three different spots from each micelle were measured and the results from three separate micelles were averaged for each group.

[7] = Critical micelle concentration (CMC) by DPH fluorescence; assay type: physicochemical; settings: VIP amphiphiles
Method: Critical micelle concentration (CMC) was measured indirectly by 1,6-diphenyl-1,3,5-hexatriene (DPH) fluorescence. […] Peptide amphiphile solutions were serially diluted in 1 μM 1,6-diphenyl-1,3,5 hexatriene (DPH) containing 0.01% THF and allowed to equilibrate for 1 hour prior to fluorescence measurement (ex. 350 nm, em. 428 nm) by a BioTek Cytation 5 fluorospectrophotometer. The resulting data was fit with two trend lines and the fluorescence inflection point was interpreted as the CMC (Table 4 and FIG. 23, FIG. 24, FIG. 25, FIG. 26, FIG. 27, FIG. 28, FIG. 29, and FIG. 30).
VIPA design and physical characterization: Based on our recent research, two VIPA chemistries were produced. The first VIPA was synthesized by directly conjugating palmitic acid (Palm) to the N-terminus of VIP to form Palm-VIP, […] (SEQ ID NO: 3), (pVIPA—FIG. 39A). The second VIPA included a zwitterion-like peptide region between Palm and VIP yielding PalmK-(EK)4-VIP, […] (SEQ ID NO: 4) (pzVIPA—FIG. 39B). […] While the addition of the hydrophilic block may have been expected to maintain or decrease the CMC, peptide folding to orient the most hydrophilic section externally can induce bending in the PA that may prevent straightforward micellar packing. […] This increased length is likely due to the intermicellar electrostatic complexation we have previously described for similar triblock PAs. […]

[8] = Micelle/peptide secondary structure by circular dichroism; assay type: physicochemical; settings: CD analysis; compared with VIP and pVIPA
Method: Micelle secondary structure was investigated by circular dichroism using a circular dichroism spectrometer model 62DS (Aviv Biomedical, Inc., Lakewood, NJ). Micelle solutions (40 μM) were loaded into a 1 mm cuvette and measured a total of 10 times from 190 to 250 nm with an interval of 1 nm. The averaged data was curve fit using a linear combination of polylysine basis structures to calculate approximate α-helix, β-sheet, and random coil content.

dendritic cells (DCs) [9] = settings: after 48 hours of incubation; previous results; cited from earlier work
[10] = low (1 μM) or high (20 μM) concentration

Compound	TNF-α secretion from activated MØs (macrophages (MØs); [10])	TNF-α secretion from activated DCs (dendritic cells (DCs) [1])	CD86 expression on activated DCs (dendritic cells (DCs) [2]; [10])	DC CCL22 production (dendritic cells (DCs) [3])	CD86 expression on activated DCs (dendritic cells (DCs) [2]; high concentration (20 μM))	CCL22 production from immature DCs (dendritic cells (DCs) [3]; high concentration)	micelle shape [6]	further results
CCCCCCCCCCCCCCCC(=O)O [Palm, palmitic acid, reference compound]	no TNF-α nor CD86 regulation	no TNF-α nor CD86 regulation	no TNF-α nor CD86 regulation	no impact on CCL22 induction	–	–	–	–
N[C@@H](CCC(=O)O)C(=O)O [glutamic acid]	–	–	–	–	–	–	–	pKa [4]: 4.07
-Lys-Glu-Lys-Glu-Lys-Glu-Lys-Glu- (KEKEKEKE) [(KE)4]	–	–	–	–	–	–	–	Zeta Potential ([5]; pH 2): 31.4 ± 2.9 mV; Zeta Potential ([5]; pH 7): −7.8 ± 1.2 mV; Zeta Potential ([5]; pH 11): −18.1 ± 4.7 mV
Palm-VIP [pVIPA]	unable to enhance the TNF-α suppressive effects of VIP	completely nullified VIP effects	–	–	enhanced	induced greater CCL22 production	cylindrical micelles	CD86 expression in immature DCs (dendritic cells (DCs) [2]; high concentration, no LPS): significantly increased; CCL22 production from mature DCs (dendritic cells (DCs) [3]; high concentration, vs LPS-stimulated mature DC control): enhanced CCL22 production
PalmK-(EK)4-VIP (K(Palmitoyl)EKEKEKEKHSDAVFTDNYTRLRKQMAVKKYLNSILN-NH2; not fully specified) [pzVIPA]	–	maintained VIP-based TNF-α secretion	–	–	significantly limited	induced greater CCL22 production	braided micelles	TNF-α secretion from activated MØs (macrophages (MØs); effect only at high concentration (20 μM)): nearly completely abrogated; CD86 cell surface expression on immature DCs (dendritic cells (DCs) [2]; no LPS): no increase; CMC [7]: 9.3 µM; α-helical conformation [8]: more abundant
Vasoactive intestinal peptide (HSDAVFTDNYTRLRKQMAVKKYLNSILN) [VIP, reference compound]	modestly reduce	modestly reduce	modestly reduce	unable to induce	–	–	–	CCL22 production (dendritic cells (DCs) [9]): induces significant CCL22 production
